Relative viability data for 1 cell line are collected here from the supplement of paper PMC10307832.

What all share (test): relative viability (nuclei count vs DMSO), 5 days (fraction); higher = more cells survive
Compound in the assay “Irinotecan + Lapatinib”: CCc1c2c(nc3ccc(OC(=O)N4CCC(N5CCCCC5)CC4)cc13)-c1cc3c(c(=O)n1C2)COC(=O)[C@]3(O)CC [Irinotecan] + CS(=O)(=O)CCNCc1ccc(-c2ccc3ncnc(Nc4ccc(OCc5cccc(F)c5)c(Cl)c4)c3c2)o1 [Lapatinib] (partner 2 µM)
The method, boiled down: (§1)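 Lung cancer cell lines in 1536-well plates were dosed by pin tool the day after seeding, either with one drug alone or with a fixed anchor-drug dose plus five library-drug doses (not always all listed) in √10 steps. After 5 days, cells were fixed and their nuclei stained in one step (final 0.05% Triton X-100, 1% formaldehyde, 1 ug/ml Hoechst), then counted on 4× images. Relative viability is the nuclei count in treated wells divided by that in vehicle wells. Values are medians of duplicate plates.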

Compound in the assay “RU-SKI 43 + Navitoclax”: CC[C@@H](C)CNCC(=O)N1CCC2=C([C@@H]1COC3=CC=CC(=C3)C)C=CS2 [RU-SKI 43] + CC1(C)CCC(c2ccc(Cl)cc2)=C(CN2CCN(c3ccc(C(=O)NS(=O)(=O)c4ccc(N[C@H](CCN5CCOCC5)CSc5ccccc5)c(S(=O)(=O)C(F)(F)F)c4)cc3)CC2)C1 [Navitoclax] (partner 0.5 µM)
The method in brief: as §1

Compound in the assay “RU-SKI 43 + Crizotinib”: CC[C@@H](C)CNCC(=O)N1CCC2=C([C@@H]1COC3=CC=CC(=C3)C)C=CS2 [RU-SKI 43] + C[C@@H](Oc1cc(-c2cnn(C3CCNCC3)c2)cnc1N)c1c(Cl)ccc(F)c1Cl [Crizotinib] (partner 1 µM)
The method in brief:
as §1

Compound in the assay “Irinotecan + Alpelisib”: CCc1c2c(nc3ccc(OC(=O)N4CCC(N5CCCCC5)CC4)cc13)-c1cc3c(c(=O)n1C2)COC(=O)[C@]3(O)CC [Irinotecan] + Cc1nc(NC(=O)N2CCC[C@H]2C(N)=O)sc1-c1ccnc(C(C)(C)C(F)(F)F)c1 [Alpelisib] (partner 2 µM)
The method in brief: as §1

Consider UMC-11, for which the relative viability is 0.354 in the assay with Irinotecan + Lapatinib (first compound 0.6325 µM); 0.452 in the assay with Irinotecan + Lapatinib (first compound 2 µM); 0.259 in the assay with Irinotecan + Lapatinib (first compound 6.325 µM); 0.2 with Irinotecan + Lapatinib (first compound 20 µM); 0.276 with RU-SKI 43 + Navitoclax (first compound 0.1 µM); 0.315 in the assay with RU-SKI 43 + Navitoclax (first compound 0.3162 µM). Further, the relative viability was found to be 0.321 with RU-SKI 43 + Navitoclax (first compound 1 µM); 0.305 with RU-SKI 43 + Navitoclax (first compound 3.162 µM); 0.267 with RU-SKI 43 + Navitoclax (first compound 10 µM); 0.763 in the assay with RU-SKI 43 + Crizotinib (first compound 0.1 µM); 0.707 with RU-SKI 43 + Crizotinib (first compound 0.3162 µM); 0.664 with RU-SKI 43 + Crizotinib (first compound 1 µM). Besides, the relative viability with RU-SKI 43 + Crizotinib (first compound 3.162 µM) worked out at 0.654; with RU-SKI 43 + Crizotinib (first compound 10 µM), 0.399; with Irinotecan + Alpelisib (first compound 0.6325 µM) it was 0.572; with Irinotecan + Alpelisib (first compound 2 µM), 0.401; with Irinotecan + Alpelisib (first compound 6.325 µM) it was 0.214; with Irinotecan + Alpelisib (first compound 20 µM), 0.229.
